Measurements from patent US7378428B2, “Nitrogen-containing bicyclic compounds and drugs containing the same as the active ingredient” (Ono Pharmaceutical Co., Ltd., priority 2002, dated 2008).

target: T1, PDE7 (Homo sapiens, UniProt Q13946); assay: In vitro enzyme assay: PDE7 inhibitory activity; type: biochemical; parameters: endogenous in cells; host or cells: HuT78 cells; soluble fraction separated on a MonoQ anion-exchange column; conditions: PDE7 fraction from HuT78 cells, 30 minutes at room temperature
Description: HuT78 cells (derived from human T cell lymphocyte) were cultured in PRMI1640 medium containing 10% bovine fetus serum. 2 L of cells (approximately 8×10^8 cells) were collected, and they were homogenized in a buffer [50 mmol/l tris hydrochloric acid buffer containing 1 mmol/l dithiothreitol (DTT), 2 mmol/l ethylenediamine tetraacetate disodium (EDTA-2Na). After centrifugation (50,000 rpm, 4° C., 1 hour), the supernatant was collected, and filtered over 0.22 μm filter and the filtrate was fractionated by column chromatography on MonoQ (Pharmacia, hard negative ion exchange column) using the filtrate as soluble portion. The PDE activity of the fraction eluted by the concentration gradient of NaCl of 0-0.8 mol/L was measured using 1 μmol/l of cAMP as a substrate. Fractions where PDE activity is not inhibited by 10 μmol/l of rolipram ([…]) are collected. As to the PDE activity of these fractions, substrate-specificity against cAMP and Michaelis-Menten constant were measured and sensitivity to rolipram was confirmed. Then the fractions which show specificity and high affinity to cAMP which are non-sensitive fractions to rolipram were identified as PDE7. The fractions were used as an enzyme liquor for the measurement of PDE inhibitory activity.
PDE7 inhibitory activity of the compound of the present invention of was evaluated by the following method. 70 μl of diluted enzyme solution, 10 μl of the solution of the compound of the present invention (10% in DMSO), 10 μl of reaction buffer solution [50 mmol/l MgCl2, 1 mg/ml bovine serum albumin, 200 mmol/l tris hydrochloric acid buffer (pH 8.0) containing 40 mmol/l 2-mercaptoethanol] in 96 well plate and it was incubated for 30 minutes at room temperature. It was microwaved for 2.5 minutes to terminate the reaction. It was centrifuged (2,000 rpm for 1 minute) and thereto was added 10 μl of 1 mg/ml snake venom (Sigma, cat. V7000) and it was incubated for 30 minutes at room temperature. The […] (50 μl) was applied to alumina column (100 μl). Purified ^3H-adenosine was eluted with 0.005N hydrochloric acid (80 μl) and its radioactivity of the elute was measured.
PDE7 inhibitory activity of the present invention was evaluated by the activity inhibitory percentage calculated from the following equation. Activity inhibitory percentage (%)=(1-radioactivity in the presence of the compound of the present invention/radioactivity in the absence of the compound of the present invention)×100

T1 sequence (Q13946 whole entry): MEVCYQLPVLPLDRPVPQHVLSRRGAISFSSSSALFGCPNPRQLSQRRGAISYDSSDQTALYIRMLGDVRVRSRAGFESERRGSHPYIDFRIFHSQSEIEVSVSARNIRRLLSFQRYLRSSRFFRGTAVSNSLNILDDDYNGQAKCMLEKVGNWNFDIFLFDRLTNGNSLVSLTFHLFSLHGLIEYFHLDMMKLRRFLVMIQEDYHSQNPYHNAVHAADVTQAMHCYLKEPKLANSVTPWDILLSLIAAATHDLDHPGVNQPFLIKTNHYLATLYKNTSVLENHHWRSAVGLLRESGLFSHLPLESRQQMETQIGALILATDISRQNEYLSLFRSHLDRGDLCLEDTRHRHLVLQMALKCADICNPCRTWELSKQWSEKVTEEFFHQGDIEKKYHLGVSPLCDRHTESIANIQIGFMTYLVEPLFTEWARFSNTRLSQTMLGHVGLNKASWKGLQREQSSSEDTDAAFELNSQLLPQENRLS

Structure (SMILES) | IC50
COc1ccccc1C(=O)/C=C1\NC(C)(C)Cc2ccc(Cl)cc21 [11(43), (Z)-2-(7-chloro-3,3-dimethyl-3,4-dihydro-(2H)-isoquinolin-1-ylidene)-1-(2-methoxyphenyl)ethan-1-one] | 970 nM
COc1ccc2c(c1)/C(=C/C(=O)c1ccc(C#N)cc1)NC(C)(C)C2 [11(35), (Z)-2-(7-methoxy-3,3-dimethyl-3,4-dihydro-(2H)-isoquinolin-1-ylidene)-1-(4-cyanophenyl)ethan-1-one] | 150 nM
COc1ccccc1C(=O)/C=C1\NC(C)(C)Cc2cc(Cl)ccc21 [12(15), (Z)-2-(6-chloro-3,3-dimethyl-3,4-dihydro-(2H)-isoquinolin-1-ylidene)-1-(2-methoxyphenyl)ethan-1-one] | 1100 nM
CC1(C)Cc2ccc(Cl)cc2/C(=C/C(=O)C23CC4CC(CC(C4)C2)C3)N1 [11(79), (Z)-2-(7-chloro-3,3-dimethyl-3,4-dihydro-(2H)-isoquinolin-1-ylidene)-1-(adamantan-1-yl)ethan-1-one] | 760 nM
COc1ccc2c(c1)CC(C)(C)N/C2=C\C(=O)C1CCCCC1 [12(7), (Z)-2-(6-methoxy-3,3-dimethyl-3,4-dihydro-(2H)-isoquinolin-1-ylidene)-1-cyclohexylethan-1-one] | 270 nM
CNc1ccc2c(c1)/C(=C/C(=O)c1ccc(C#N)cc1)NC(C)(C)C2 [11(162), (Z)-2-(7-methylamino-3,3-dimethyl-3,4-dihydro-(2H)-isoquinolin-1-ylidene)-1-(4-cyanophenyl)ethan-1-one] | 370 nM

Continued, values first:

IC50 | Structure (SMILES)
23 nM | COc1ccc2c(c1)/C(=C/C(=O)c1ccc(N)cc1)NC2(C)C [Example 58, (Z)-2-(6-methoxy-3,3-dimethyl-2,3-dihydro-(2H)-isoindol-1-ylidene)-1-(4-aminophenyl)ethan-1-one]
27 nM | COc1ccc2c(c1)/C(=C/C(=O)c1ccc(NC(N)=O)cc1)NC(C)(C)C2 [Example 73, (Z)-2-(7-methoxy-3,3-dimethyl-3,4-dihydro-(2H)-isoquinolin-1-ylidene)-1-(4-((aminocarbonyl)amino)phenyl)ethan-1-one]

target: T1, PDE7; assay: not given; conditions: J. Biol. Chem., 268, 12925 (1993); cited from earlier work

Structure (SMILES) | inhibition of PDE7
COc1ccc(C2CNC(=O)C2)cc1OC1CCCC1 (stereo not shown) [rolipram] | not inhibited

target: T2, Human CB2 receptors (Homo sapiens, UniProt P34972); assay: In vitro signaling assay: inhibition of forskolin-induced cAMP production in human CB2 receptor expressing CHO cells; type: cell-based; conditions: 10 μM forskolin, 15 minutes at room temperature
T2 construct: expressed in transfected cells; host or cells: CHO cells
Description: Human CB2 receptors expressed CHO cells were used for the assays. Cells were dispersed seeded in 96-well plates in a density of 5×10^4 cells/well, and were subjected to experiment the next day. After removing the culture media 1 mM isobutylmethylxanthine (IBMX) solution was added, and cells were incubated for 10 minutes at room temperature. Next, a mixture of 10 μM forskolin and the compound of the present invention was added. After additional incubation for 15 minutes at room temperature, the culture supernatant was discarded and 200 μl of lysis reagent (attached to a cAMP EIA) was added. The amounts of cAMP of the lysate were determined by a cAMP EIA kit (Amersham) under conditions of the forskolin-induced cAMP production. The compound of the present invention was dissolved in DMSO and the solution was diluted to adjust the final concentration of DMSO to 0.1%. IC50 values were calculated from the inhibitory ratio of the compound of the present invention toward the amount of the forskolin-induced cAMP production. By the same experiment using CHO cells, it was confirmed that this inhibitory effect toward cAMP production by the compound was mediated via the human CB2 receptors.

T2 sequence (P34972 whole entry): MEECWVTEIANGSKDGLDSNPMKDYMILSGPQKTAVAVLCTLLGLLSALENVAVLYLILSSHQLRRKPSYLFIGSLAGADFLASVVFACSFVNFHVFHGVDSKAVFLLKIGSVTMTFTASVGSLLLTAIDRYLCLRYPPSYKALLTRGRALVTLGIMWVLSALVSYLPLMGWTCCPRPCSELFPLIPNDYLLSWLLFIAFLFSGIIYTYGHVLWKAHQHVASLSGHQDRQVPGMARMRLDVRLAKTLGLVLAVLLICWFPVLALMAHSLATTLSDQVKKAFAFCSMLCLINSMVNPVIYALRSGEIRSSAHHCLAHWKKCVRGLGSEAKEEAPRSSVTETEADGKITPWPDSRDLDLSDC

IC50 | Structure (SMILES)
5.3 nM | CC1(C)Cc2cc(C#N)c(C#N)cc2/C(=C/C(=O)C2CCOCC2)N1 [46(3), (Z)-2-(6,7-dicyano-3,3-dimethyl-3,4-dihydro-(2H)-isoquinolin-1-ylidene)-1-(tetrahydropyran-4-yl)ethan-1-one]
4.1 nM | Cc1cc2c(cc1O)/C(=C/C(=O)C1CCCCCC1)NC(C)(C)C2 [47(6), (Z)-2-(7-hydroxy-3,3,6-trimethyl-3,4-dihydro-(2H)-isoquinolin-1-ylidene)-1-cycloheptylethan-1-one]
5.2 nM | Cc1cc2c(cc1O)/C(=C/C(=O)C13CC4CC(CC(C4)C1)C3)NC(C)(C)C2 [47(4), (Z)-2-(7-hydroxy-3,3,6-trimethyl-3,4-dihydro-(2H)-isoquinolin-1-ylidene)-1-(adamantan-1-yl)ethan-1-one]
3.3 nM | COc1ccc2c(c1)C(C)(C)N/C2=C\C(=O)c1ccccc1OC [57(2), (Z)-2-(5-methoxy-3,3-dimethyl-2,3-dihydro-(2H)-isoindol-1-ylidene)-1-(2-methoxyphenyl)ethan-1-one]
